Test [1] deals with Epidermal growth factor receptor (Homo sapiens, UniProt P00533). Put plainly: Inhibition of Epidermal growth factor receptor.
The target of test [2] is Cyclin-dependent kinase 4 (Homo sapiens, UniProt P11802). Put plainly: Inhibition of Cyclin-dependent kinase 4.
For test [3], the target named is Tyrosine-protein kinase JAK1 (Homo sapiens, UniProt P23458). Put plainly: Inhibition of Janus kinase 1.
Test [4] has as its target Tyrosine-protein kinase Lck (Homo sapiens, UniProt P06239). In words: Inhibition of p56 Lck tyrosine kinase.

Structures are written as SMILES.

Tyrosine-protein kinase Lck, sequence (P06239 whole entry): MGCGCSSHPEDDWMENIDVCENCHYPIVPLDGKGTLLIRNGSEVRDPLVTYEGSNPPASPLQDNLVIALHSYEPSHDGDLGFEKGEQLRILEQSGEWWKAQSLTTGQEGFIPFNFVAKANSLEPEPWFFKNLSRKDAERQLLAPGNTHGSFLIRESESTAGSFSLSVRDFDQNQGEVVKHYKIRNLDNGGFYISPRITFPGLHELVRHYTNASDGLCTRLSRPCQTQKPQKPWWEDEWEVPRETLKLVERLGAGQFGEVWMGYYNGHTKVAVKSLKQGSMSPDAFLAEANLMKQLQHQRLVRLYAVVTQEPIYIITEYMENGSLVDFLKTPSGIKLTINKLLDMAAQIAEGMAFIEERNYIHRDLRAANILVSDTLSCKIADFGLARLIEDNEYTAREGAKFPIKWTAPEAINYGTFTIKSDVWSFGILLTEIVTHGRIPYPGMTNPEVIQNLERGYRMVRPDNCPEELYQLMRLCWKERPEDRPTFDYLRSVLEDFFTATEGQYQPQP
Tyrosine-protein kinase JAK1, sequence (P23458 whole entry): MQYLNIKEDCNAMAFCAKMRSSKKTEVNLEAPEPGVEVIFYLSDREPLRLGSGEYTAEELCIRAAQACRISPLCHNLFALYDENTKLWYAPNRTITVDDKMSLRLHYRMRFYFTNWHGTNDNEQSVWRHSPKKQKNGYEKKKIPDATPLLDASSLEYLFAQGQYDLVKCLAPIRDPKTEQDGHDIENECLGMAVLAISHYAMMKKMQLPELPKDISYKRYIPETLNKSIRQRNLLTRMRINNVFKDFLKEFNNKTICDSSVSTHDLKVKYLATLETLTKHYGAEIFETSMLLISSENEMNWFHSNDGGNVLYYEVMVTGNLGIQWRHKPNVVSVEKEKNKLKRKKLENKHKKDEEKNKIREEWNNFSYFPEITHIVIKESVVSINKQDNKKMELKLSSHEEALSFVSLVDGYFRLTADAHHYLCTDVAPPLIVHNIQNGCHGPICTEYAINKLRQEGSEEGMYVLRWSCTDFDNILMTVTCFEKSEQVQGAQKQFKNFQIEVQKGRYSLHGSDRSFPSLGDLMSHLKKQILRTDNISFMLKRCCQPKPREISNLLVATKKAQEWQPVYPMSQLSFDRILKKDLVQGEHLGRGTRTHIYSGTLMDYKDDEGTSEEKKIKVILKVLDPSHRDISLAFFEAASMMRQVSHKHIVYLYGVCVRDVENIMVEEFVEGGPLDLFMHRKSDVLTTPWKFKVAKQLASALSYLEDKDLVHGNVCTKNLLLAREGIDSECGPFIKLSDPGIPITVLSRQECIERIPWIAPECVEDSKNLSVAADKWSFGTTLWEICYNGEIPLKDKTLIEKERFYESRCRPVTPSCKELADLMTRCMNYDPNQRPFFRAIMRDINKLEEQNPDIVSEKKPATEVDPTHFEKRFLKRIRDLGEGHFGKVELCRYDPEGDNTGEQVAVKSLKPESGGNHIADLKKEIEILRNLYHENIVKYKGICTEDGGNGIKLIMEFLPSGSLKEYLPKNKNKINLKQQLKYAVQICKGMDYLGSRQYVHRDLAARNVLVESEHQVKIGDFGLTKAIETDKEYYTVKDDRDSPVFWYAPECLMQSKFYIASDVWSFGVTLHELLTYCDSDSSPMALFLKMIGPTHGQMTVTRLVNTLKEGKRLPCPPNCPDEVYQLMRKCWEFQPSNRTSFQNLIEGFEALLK
Cyclin-dependent kinase 4, sequence (P11802 whole entry): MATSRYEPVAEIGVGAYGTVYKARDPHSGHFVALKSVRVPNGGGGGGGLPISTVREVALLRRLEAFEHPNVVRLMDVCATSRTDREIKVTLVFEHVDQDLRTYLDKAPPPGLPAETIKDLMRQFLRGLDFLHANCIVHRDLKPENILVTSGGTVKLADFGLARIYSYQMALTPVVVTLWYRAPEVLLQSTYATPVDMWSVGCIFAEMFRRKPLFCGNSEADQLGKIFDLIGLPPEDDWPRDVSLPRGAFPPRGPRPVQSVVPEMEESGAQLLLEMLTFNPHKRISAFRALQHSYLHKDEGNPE
Epidermal growth factor receptor, sequence (P00533 whole entry): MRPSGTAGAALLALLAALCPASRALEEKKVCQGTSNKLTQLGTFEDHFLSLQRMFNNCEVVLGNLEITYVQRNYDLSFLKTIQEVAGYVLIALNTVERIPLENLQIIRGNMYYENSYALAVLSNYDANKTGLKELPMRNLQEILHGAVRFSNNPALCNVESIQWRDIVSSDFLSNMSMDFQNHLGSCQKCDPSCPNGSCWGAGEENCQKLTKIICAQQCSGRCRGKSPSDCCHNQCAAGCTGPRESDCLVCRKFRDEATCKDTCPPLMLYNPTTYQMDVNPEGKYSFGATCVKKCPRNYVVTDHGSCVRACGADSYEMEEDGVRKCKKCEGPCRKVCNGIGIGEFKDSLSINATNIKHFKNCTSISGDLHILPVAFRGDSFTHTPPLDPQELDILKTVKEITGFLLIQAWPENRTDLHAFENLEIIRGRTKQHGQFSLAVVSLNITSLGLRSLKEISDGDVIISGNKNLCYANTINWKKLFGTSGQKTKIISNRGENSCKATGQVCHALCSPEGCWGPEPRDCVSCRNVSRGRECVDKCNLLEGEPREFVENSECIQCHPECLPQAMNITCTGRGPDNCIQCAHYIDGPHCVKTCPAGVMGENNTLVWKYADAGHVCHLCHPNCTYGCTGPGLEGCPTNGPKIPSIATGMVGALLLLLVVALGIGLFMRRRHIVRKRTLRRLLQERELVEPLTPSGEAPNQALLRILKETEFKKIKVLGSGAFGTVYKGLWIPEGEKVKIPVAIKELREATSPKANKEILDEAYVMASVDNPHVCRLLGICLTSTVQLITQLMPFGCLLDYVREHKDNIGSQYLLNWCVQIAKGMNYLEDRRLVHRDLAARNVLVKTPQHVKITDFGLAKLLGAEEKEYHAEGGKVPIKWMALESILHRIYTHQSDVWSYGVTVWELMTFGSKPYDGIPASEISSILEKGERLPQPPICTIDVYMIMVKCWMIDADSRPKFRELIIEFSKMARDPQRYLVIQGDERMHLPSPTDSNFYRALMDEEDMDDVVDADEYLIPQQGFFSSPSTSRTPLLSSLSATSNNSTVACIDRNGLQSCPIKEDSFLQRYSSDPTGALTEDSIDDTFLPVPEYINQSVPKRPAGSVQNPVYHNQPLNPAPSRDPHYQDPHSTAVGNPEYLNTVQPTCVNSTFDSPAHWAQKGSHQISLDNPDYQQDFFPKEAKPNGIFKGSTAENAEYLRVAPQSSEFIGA

In general, IC50 refers to the point on the concentration scale where inhibition reaches its midpoint. Read a low IC50 as inhibition by little substance. On to `C=CC(=O)c1ccc2ccccc2c1`, for which the IC50 in test [1] is 10 µM; in test [2], over 10 µM; in test [3], 20 µM; in test [4], over 10 µM.
Take `CC(C)N(CCC(=O)c1ccc2ccccc2c1)Cc1ccccc1`: the IC50 in test [1] was 2.51 µM; in test [2], over 10 µM; in test [3], 39.8 µM; in test [4] it was over 10 µM.

Source of the values: ChEMBL document CHEMBL1133428, “Naphthyl ketones: a new class of Janus kinase 3 inhibitors” (Bioorg Med Chem Lett, 2000).
